Measurements as given in US12390536B2, “Antibody-drug complex containing toll-like receptor 7/8 dual agonist compound” (ASTELLAS PHARMA INC., priority 2022, dated 2025).
Where a name gives a salt, the structure may show the parent alone. Read-outs that look alike come from different tables or passages of the source.

Key:
mouse TLR7 = target: T1, mouse TLR7 (Mus musculus, UniProt P58681); assay: TLR7/8 reporter assay (HEK293, NFκB Nanoluc luciferase reporter), mouse TLR7; type: cell-based; conditions: 24-hour incubation; read-out: mTLR7 EC50
T1 construct: expressed in transfected cells
T1 sequence (P58681 27-1050): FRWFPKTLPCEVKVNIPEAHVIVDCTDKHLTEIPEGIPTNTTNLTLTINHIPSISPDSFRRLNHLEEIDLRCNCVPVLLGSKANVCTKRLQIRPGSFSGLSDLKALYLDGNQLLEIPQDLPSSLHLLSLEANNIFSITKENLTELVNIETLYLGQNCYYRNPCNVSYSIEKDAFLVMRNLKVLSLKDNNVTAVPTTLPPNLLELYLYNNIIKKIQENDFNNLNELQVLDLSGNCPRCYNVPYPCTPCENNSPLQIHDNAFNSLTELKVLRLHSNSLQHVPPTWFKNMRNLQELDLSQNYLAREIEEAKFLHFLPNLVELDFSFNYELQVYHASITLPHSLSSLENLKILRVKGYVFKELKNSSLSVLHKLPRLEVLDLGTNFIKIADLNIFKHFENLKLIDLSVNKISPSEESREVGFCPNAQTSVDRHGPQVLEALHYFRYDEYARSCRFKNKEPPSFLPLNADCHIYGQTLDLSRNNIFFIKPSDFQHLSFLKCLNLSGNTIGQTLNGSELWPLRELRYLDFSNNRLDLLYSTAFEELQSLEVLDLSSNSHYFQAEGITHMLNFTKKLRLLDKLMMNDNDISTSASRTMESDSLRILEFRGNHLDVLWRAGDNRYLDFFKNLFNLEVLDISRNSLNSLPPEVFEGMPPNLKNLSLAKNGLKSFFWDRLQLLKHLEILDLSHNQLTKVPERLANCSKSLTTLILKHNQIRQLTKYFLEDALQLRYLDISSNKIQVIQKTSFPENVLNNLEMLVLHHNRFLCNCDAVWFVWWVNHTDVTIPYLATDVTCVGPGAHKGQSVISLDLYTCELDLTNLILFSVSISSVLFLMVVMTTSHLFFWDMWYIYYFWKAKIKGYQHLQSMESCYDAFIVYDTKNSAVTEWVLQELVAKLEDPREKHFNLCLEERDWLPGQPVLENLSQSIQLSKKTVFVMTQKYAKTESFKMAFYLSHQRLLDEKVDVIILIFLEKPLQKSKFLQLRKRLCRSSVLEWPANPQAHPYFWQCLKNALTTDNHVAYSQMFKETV
Description: (§1) HEK293 cells (ATCC, #CRL-1573) were co-transfected with an expression vector having a nucleotide sequence encoding a TLR (human TLR7, human TLR8 or mouse TLR7) protein and a Nanoluc PEST luciferase reporter vector having an NFκB response element sequence (Genbank: JQ513377 bases 33 to 84) integrated therein. Thereafter, the transfected cells were cultured in DMEM (Sigma-Aldrich, #D5796-500 mL) containing Geneticin (Gibco, #10131-027) at a final concentration of 800 μg/mL, Hygromycin B (Invitrogen, #10687010) at a final concentration of 500 μg/mL, penicillin streptomycin (Gibco, #15070-063) at a final concentration of 1% and a 10% fetal bovine serum (FBS) (HyClone, #SH30084.03) to obtain a stable cell line for expression.
(§2) To reporter cells obtained above, DMEM containing 10% FBS was added to prepare a suspension of 1×10^5 cells/mL. The suspension was added to the wells of a 384-well white plate coated with collagen I (hereinafter referred to as “384-well plate”, Corning, #356703) at a rate of 20 μL per well. The cells were cultured in the conditions of 37° C. and 5% CO2, overnight (18 hours) and allowed to adhere to the plate. A test sample was dissolved in DMSO. The solution was diluted by adding DMEM medium containing 10% FBS to the solution such that the concentration becomes 5-fold as high as a final concentration. The diluted DMEM medium was added to the wells of the 384-well plate at a ratio of 5 μL/well. After the medium was further incubated in the conditions of 37° C. and 5% CO2 for 24 hours, the plate was taken out and allowed to stand still at room temperature for 10 minutes. Thereafter, chemiluminescence was measured using Nano-Glo Luciferase Assay System (Promega, #N1120) and EnVision 2104 (PerkinElmer) plate reader. A dose-response curve was prepared for each test sample and the EC50 value was obtained as a concentration at 50% of the maximum signal. In the table, hTLR7 represents human TLR7 and hTLR8 represents human TLR8; and mTLR7 represents mouse TLR7. A data item attached with an asterisk (*) indicates the result of 7 hour-incubation and other data items are the results of 24-hour incubation.

human TLR8 = target: T2, human TLR8 (Homo sapiens, UniProt Q9NR97); assay: TLR7/8 reporter assay (HEK293, NFκB Nanoluc luciferase reporter), human TLR8; type: cell-based; conditions: read-out: hTLR8 EC50
T2 construct: expressed in transfected cells
T2 sequence (Q9NR97 27-1041): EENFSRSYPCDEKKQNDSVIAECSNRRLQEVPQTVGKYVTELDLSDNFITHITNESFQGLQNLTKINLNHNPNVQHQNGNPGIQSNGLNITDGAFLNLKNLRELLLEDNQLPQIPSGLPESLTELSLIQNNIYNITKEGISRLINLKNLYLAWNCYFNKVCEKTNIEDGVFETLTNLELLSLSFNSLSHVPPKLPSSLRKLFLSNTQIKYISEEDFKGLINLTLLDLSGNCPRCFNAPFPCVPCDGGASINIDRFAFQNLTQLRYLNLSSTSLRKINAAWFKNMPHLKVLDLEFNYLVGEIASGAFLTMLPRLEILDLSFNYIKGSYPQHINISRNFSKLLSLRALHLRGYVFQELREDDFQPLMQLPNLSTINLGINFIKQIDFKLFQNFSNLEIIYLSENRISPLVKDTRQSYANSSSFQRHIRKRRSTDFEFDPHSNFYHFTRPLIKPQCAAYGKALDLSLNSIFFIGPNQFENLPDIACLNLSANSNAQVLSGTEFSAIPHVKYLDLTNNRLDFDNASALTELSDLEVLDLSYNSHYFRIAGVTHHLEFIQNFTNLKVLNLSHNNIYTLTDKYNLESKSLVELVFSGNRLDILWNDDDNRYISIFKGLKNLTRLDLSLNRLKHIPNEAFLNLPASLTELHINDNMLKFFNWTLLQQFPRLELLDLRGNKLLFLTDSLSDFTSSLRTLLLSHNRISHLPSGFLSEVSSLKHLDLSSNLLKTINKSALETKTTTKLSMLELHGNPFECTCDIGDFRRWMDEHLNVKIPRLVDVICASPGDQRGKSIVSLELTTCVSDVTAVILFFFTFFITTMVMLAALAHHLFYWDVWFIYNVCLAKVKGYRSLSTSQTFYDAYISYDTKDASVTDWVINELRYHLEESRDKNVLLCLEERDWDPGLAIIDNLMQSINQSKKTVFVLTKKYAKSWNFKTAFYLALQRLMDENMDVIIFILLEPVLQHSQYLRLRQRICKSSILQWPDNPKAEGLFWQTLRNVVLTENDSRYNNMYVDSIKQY
Description: as §1, §2

## CCCCCNc1nc(N)nc2cc(C)n(Cc3ccc(CN4CCNCC4)cc3OC)c12 [Ex8, 5-({2-methoxy-4-[(piperazin-1-yl)methyl]phenyl}methyl)-6-methyl-N^4-pentyl-5H-pyrrolo[3,2-d]pyrimidine-2,4-diamine hydrochloride]
Mouse TLR7
  EC50: 0.0235 µM
Human TLR8; 24-hour incubation
  EC50: 2.11 µM

## CCCCCNc1nc(N)nc2ccn(Cc3ccc(CC4CCNCC4)cc3OC)c12 [Ex9, 5-({2-methoxy-4-[(piperidin-4-yl)methyl]phenyl}methyl)-N^4-pentyl-5H-pyrrolo[3,2-d]pyrimidine-2,4-diamine]
Mouse TLR7
  EC50: 0.00481 µM
Human TLR8; 24-hour incubation
  EC50: 1.18 µM

## CCCCCNc1nc(N)nc2ccn(Cc3ccc(CNC4CC4)cc3OC)c12 [Ex3, 5-({4-[(cyclopropylamino)methyl]-2-methoxyphenyl}methyl)-N^4-pentyl-5H-pyrrolo[3,2-d]pyrimidine-2,4-diamine]
Mouse TLR7
  EC50: 0.00617 µM
Human TLR8; 24-hour incubation
  EC50: 2.16 µM

## CCCCCNc1nc(N)nc2c(Cl)cn(Cc3ccc(CN4CC[C@H]4CO)cc3OC)c12 [Ex17]
Mouse TLR7
  EC50: 0.00711 µM
Human TLR8; 24-hour incubation
  EC50: 3.74 µM

## COc1cc(CN2CCNC[C@H]2CF)ccc1Cn1ccc2nc(N)nc(SCc3cc(C)on3)c21 [Ex11]
Mouse TLR7
  EC50: 0.0092 µM
Human TLR8; 24-hour incubation
  EC50: 13.3 µM

## CCCCCNc1nc(N)nc2ccn(Cc3ccc(CN4CCN[C@@H](CF)C4)cc3OC)c12 [Ex2, 5-[(4-{[(3R)-3-(fluoromethyl)piperazin-1-yl]methyl}-2-methoxyphenyl)methyl]-N^4-pentyl-5H-pyrrolo[3,2-d]pyrimidine-2,4-diamine (trifluoroacetic acid) salt]
Mouse TLR7
  EC50: 0.00536 µM
Human TLR8; 24-hour incubation
  EC50: 1.97 µM

## CCCCCSc1nc(N)nc2ccn(Cc3ccc(CN4CCC(O)CC4)cc3OC)c12 [Ex14]
Mouse TLR7
  EC50: 0.0273 µM
Human TLR8; 24-hour incubation
  EC50: 6.59 µM

## CCCCCNc1nc(N)nc2c(Br)cn(Cc3ccc(CN4CCC[C@H]4CO)cc3OC)c12 [Ex7, {(2S)-1-[(4-{[2-amino-7-bromo-4-(pentylamino)-5H-pyrrolo[3,2-d]pyrimidin-5-yl]methyl}-3-methoxyphenyl)methyl]pyrrolidin-2-yl}methanol]
Mouse TLR7
  EC50: 0.0215 µM
Human TLR8; 24-hour incubation
  EC50: 2 µM

## CCCCCSc1nc(N)nc2ccn(Cc3ccc(CN4CC[C@@H](CN)C4)cc3OC)c12 [Ex15]
Mouse TLR7
  EC50: 0.111 µM
Human TLR8; 24-hour incubation
  EC50: 4.88 µM

## CCCCCSc1nc(N)nc2ccn(Cc3ccc(CN4CCNCC4)cc3OC)c12 [Ex4, 5-({2-methoxy-4-[(piperazin-1-yl)methyl]phenyl}methyl)-4-(pentylsulfanyl)-5H-pyrrolo[3,2-d]pyrimidin-2-amine]
Mouse TLR7
  EC50: 0.0399 µM
Human TLR8; 24-hour incubation
  EC50: 2.48 µM

## CCCCCNc1nc(N)nc2ccn(Cc3ccc(CNCC4CCC4)cc3OC)c12 [Ex12]
Mouse TLR7
  EC50: 0.00358 µM
Human TLR8; asterisk (*): 7 hour-incubation
  EC50: 0.685 µM

## CCCCCNc1nc(N)nc2ccn(Cc3ccc(CN4CCNC[C@@H]4CF)cc3OC)c12 [Ex10, 5-[(4-{[(2R)-2-(fluoromethyl)piperazin-1-yl]methyl}-2-methoxyphenyl)methyl]-N^4-pentyl-5H-pyrrolo[3,2-d]pyrimidine-2,4-diamine]
Mouse TLR7
  EC50: 0.00875 µM
Human TLR8; 24-hour incubation
  EC50: 0.716 µM

## CCCCCSc1nc(N)nc2ccn(Cc3ccc(CN4CC[C@H]4CO)cc3OC)c12 [Ex13]
Mouse TLR7
  EC50: 0.0174 µM
Human TLR8; 24-hour incubation
  EC50: 6.22 µM

## CCCCCNc1nc(N)nc2ccn(Cc3ccc(CN4CCNC[C@H]4CF)cc3OC)c12 [Ex1, 5-[(4-{[(2S)-2-(fluoromethyl)piperazin-1-yl]methyl}-2-methoxyphenyl)methyl]-N^4-pentyl-5H-pyrrolo[3,2-d]pyrimidine-2,4-diamine]
Mouse TLR7
  EC50: 0.00292 µM
Human TLR8; 24-hour incubation
  EC50: 0.22 µM

## CCCCCNc1nc(N)nc2c(Cl)cn(Cc3ccc(CN4CCC[C@H]4CO)cc3OC)c12 [Ex6, {(2S)-1-[(4-{[2-amino-7-chloro-4-(pentylamino)-5H-pyrrolo[3,2-d]pyrimidin-5-yl]methyl}-3-methoxyphenyl)methyl]pyrrolidin-2-yl}methanol]
Mouse TLR7
  EC50: 0.0101 µM
Human TLR8; 24-hour incubation
  EC50: 0.964 µM

## CCCCCSc1nc(N)nc2ccn(Cc3ccc(CN4CCC[C@H]4CO)cc3OC)c12 [Ex5, {(2S)-1-[(4-{[2-amino-4-(pentylsulfanyl)-5H-pyrrolo[3,2-d]pyrimidin-5-yl]methyl}-3-methoxyphenyl)methyl]pyrrolidin-2-yl}methanol]
Mouse TLR7
  EC50: 0.0267 µM
Human TLR8; 24-hour incubation
  EC50: 11.7 µM

## CCCCCNc1nc(N)nc2c(Cl)cn(Cc3ccc(CN4CCC[C@H]4C(C)(C)O)cc3OC)c12 [Ex18]
Mouse TLR7
  EC50: 0.0139 µM
Human TLR8; 24-hour incubation
  EC50: 3.63 µM
